# Experiments:
# [1] = tested on: U-937 cells; experiment: Cytokine secretion by ELISA (Example 31); type: cell-based; conditions: for Cytokine Secretion IL-6 pg/ml Mean of 3 Replicates: drug 500 μM, LPS-activated cells
# Protocol: (§1) In a search for a topical agent that can locally deplete levels of T-cells in the skin, apoptotic compounds were evaluated for their mechanisms of action. The ability that […] induce apoptosis by the same mechanisms was examined by cytokine secretion. […] Caspase-3 and cytokine (IL-2, IL-6, TNF, and IFN-γ) levels were determined and compared to controls at 23 and 46 hours. FdA was incorporated to evaluate the effect of the halogen group and Ara-C for its overlapping mechanisms of action. […] At the end of the treatment period, the cells were harvested and Caspase-3 induction was determined using a flow-cytometry-based method to quantify the percentage of cells that induced Caspase-3. The level of apoptosis is expressed as “% FITC shift”. Cytokine secretion (IL-2, IL-6, TNF, and IFN-γ) was measured at the same time by ELISA and is expressed in pg/mL. […]
# [2] = tested on: U-937 cells; experiment: Toxicity to U-937 cells (summary in Example 29); type: cell-based
# [3] = tested on: lymphocytes; conditions: cited from earlier work
# [4] = tested on: U937 monocytoid cells; experiment: TUNEL assay, dAd added at different times after dCF wash-out (Example 22); type: cell-based; conditions: dCF 0 μM 2 days, wash, 2 more days
# [5] = Calculated concentration in the skin assuming 7% penetration
# [6] = tested on: Jurkat cells; experiment: Cytokine secretion by ELISA (Example 31); type: cell-based; conditions: for Cytokine Secretion IL-2 pg/ml Mean of 3 Replicates: PHA-activated cells
# Protocol: In a search for a topical agent that can locally deplete levels of T-cells in the skin, apoptotic compounds were evaluated for their mechanisms of action. The ability that […] induce apoptosis by the same mechanisms was examined by cytokine secretion. […] At the end of the treatment period, the cells were harvested and Caspase-3 induction was determined using a flow-cytometry-based method to quantify the percentage of cells that induced Caspase-3. The level of apoptosis is expressed as “% FITC shift”. Cytokine secretion (IL-2, IL-6, TNF, and IFN-γ) was measured at the same time by ELISA and is expressed in pg/mL.
# [7] = tested on: U937 monocytoid cells; experiment: TUNEL apoptosis assay, sequential exposure to dCF then dAd (Example 21); type: cell-based; conditions: no dCF (0 uM)
# Protocol: (§2) Thus, it is hypothesized that the sequential exposure of the cells to dCF, followed by deoxyadenosine (dAd) will lead to greater levels of apoptosis than dCF alone. […] The cells were then incubated in dAd for 2 more days. At the end of the treatment period, the cells were harvested for analysis by a TUNEL assay, a flow-cytometry-based method to quantify the percentage of cells that have undergone apoptosis. The level of apoptosis is expressed as “% FITC shift”. As a positive control, the cells were exposed to 5 mM camptothecin for 2 days.
# [8] = tested on: Jurkat T cells; experiment: as above; type: cell-based; conditions: no dCF (0 uM)
# Protocol: as §2
# [9] = tested on: monocytes and lymphocytes; experiment: Toxicity of dAdo to monocytes and lymphocytes; type: cell-based
# [10] = tested on: Jurkat cells; experiment: Caspase-3 induction by flow cytometry (Example 31); type: cell-based; conditions: drug 500 μM, PHA-activated cells
# Protocol: as §1
# [11] = tested on: U-937 cells; experiment: Caspase-3 induction by flow cytometry (Example 31); type: cell-based; conditions: drug 500 μM, LPS-activated cells
# Protocol: as §1
# [12] = tested on: U937 monocytoid cells; experiment: TUNEL assay, simultaneous exposure to dCF and dAd (Example 22); type: cell-based
# Protocol: Methods Simultaneous Exposure—U937 monocytoid cells were cultured in the presence of 0, 1, 2.5, 10, 20, 50, 100, 150, 200, and 250 μM dAdo for 2 days. […] At the end of the treatment period, the cells were harvested for analysis by a TUNEL assay, a flow-cytometry-based method to quantify the percentage of cells that have undergone apoptosis. The level of apoptosis is expressed as “% FITC shift”. As a positive control, the cells were exposed to 5 mM camptothecin for 2 days.
# [13] = tested on: U937 monocytoid cells; experiment: TUNEL assay, dAd added at different times after dCF wash-out (Example 22); type: cell-based; conditions: dCF 0 μM 2 days, wash, 2 more days; remark: listed apart in the source
# Protocol: At 0, 6, 24, and 48 hours, 50 μM dAd was added and the cells were incubated for an additional 2 days. At the end of the treatment period, the cells were harvested for analysis by a TUNEL assay, a flow-cytometry-based method to quantify the percentage of cells that have undergone apoptosis. The level of apoptosis is expressed as “% FITC shift”. As a positive control, the cells were exposed to 5 mM camptothecin for 2 days.
# [14] = 50 μM dAd added 0 hr after wash-out
# [15] = 50 μM dAd added 6 hr after wash-out
# [16] = 50 μM dAd added 24 hr after wash-out
# [17] = 50 μM dAd added 48 hr after wash-out
# [18] = dAd 10 μM alone (dCF 0), 2 days
# [19] = dAd 20 μM alone (dCF 0), 2 days
# [20] = dAd 50 μM alone (dCF 0), 2 days
# [21] = dAd 100 μM alone (dCF 0), 2 days
# [22] = dAd 150 μM alone (dCF 0), 2 days
# [23] = dAd 200 μM alone (dCF 0), 2 days
# [24] = dAd 250 μM alone (dCF 0), 2 days
smiles,measurement,setting,value
"Nc1ncnc2c1ncn2[C@H]1C[C@H](O)[C@@H](CO)O1 [dAd, 2′-deoxyadenosine]",Cytokine Secretion IL-6 pg/ml Mean of 3 Replicates,[1]; 23 hr,4 pg/mL
same,IL-6 inhibition after Caspase-3 induction,"[1]; 46 hours, compared to no drug+LPS",55%
same,Cytokine Secretion IL-6 pg/ml Mean of 3 Replicates,[1]; 46 hr,4 pg/mL
same,concentration toxic to U-937 cells on its own,[2],250 µM
same,potentiation of the growth inhibitory effect of dCF,[3],"up to 1,000 fold"
same,% PI Shift,[4]; [14],1.4%
same,% PI Shift,[4]; [15],1.3%
same,% PI Shift,[4]; [16],1.1%
same,% PI Shift,[4]; [17],2.0%
same,Concentration in the skin assuming 7% penetration,[5]; topical concentration 0.00005%,0.14 µM
same,Concentration in the skin assuming 7% penetration,[5]; topical concentration 0.0005%,1.39 µM
same,Concentration in the skin assuming 7% penetration,[5]; topical concentration 0.005%,13.93 µM
same,Concentration in the skin assuming 7% penetration,[5]; topical concentration 0.01%,27.86 µM
same,Concentration in the skin assuming 7% penetration,[5]; topical concentration 0.05%,139.31 µM
same,Concentration in the skin assuming 7% penetration,[5]; topical concentration 0.1%,278.62 µM
same,Concentration in the skin assuming 7% penetration,[5]; topical concentration 0.5%,1393.09 µM
same,Concentration in the skin assuming 7% penetration,[5]; topical concentration 1%,2786.18 µM
same,Concentration in the skin assuming 7% penetration,[5]; topical concentration 3%,8358.54 µM
same,Concentration in the skin assuming 7% penetration,[5]; topical concentration 5%,13930.90 µM
same,Cytokine Secretion IL-2 pg/ml Mean of 3 Replicates,"[6]; 23 hr, drug 500 μM",17 pg/mL
same,IL-2 inhibition,"[6]; 46 hours, compared to no drug+PHA",61%
same,Cytokine Secretion IL-2 pg/ml Mean of 3 Replicates,"[6]; 46 hr, drug 500 μM",49 pg/mL
same,IL-2 concentration,"[6]; Jurkat cells activated by PHA, 46 hours, drug 500 μM",49 pg/mL
same,% FITC Shift,[7]; dAd 10 uM 2 days,1.8%
same,% FITC Shift,[7]; dAd 50 uM 2 days,2.6%
same,% FITC Shift,[7]; dAd 250 uM 2 days,92%
same,% FITC Shift,[8]; dAd 10 uM 2 days,1.6%
same,% FITC Shift,[8]; dAd 50 uM 2 days,4.2%
same,% FITC Shift,[8]; dAd 250 uM 2 days,22.2%
same,concentrations toxic to monocytes and lymphocytes,[9],greater than 100 μM
same,Caspase-3 Induction % FITC Shift - Mean of 3 Replicates,[10]; 23 hr,73%
same,Caspase-3 Induction % FITC Shift - Mean of 3 Replicates,[10]; 46 hr,92%
same,Caspase-3 Induction % FITC Shift - Mean of 3 Replicates,[11]; 23 hr,67%
same,Caspase-3 Induction % FITC Shift - Mean of 3 Replicates,[11]; 46 hr,43%
same,concentration at which dAd itself induces apoptosis,"[12]; U937 cells, no dCF",100 to 200 µM
same,concentrations at which dAd alone is toxic,"[12]; absence of dCF, 2 days",> 100 µM
same,% FITC Shift,"[12]; dAd 1 μM alone (dCF 0), 2 days",1.2%
same,% PI Shift,"[12]; dAd 1 μM alone (dCF 0), 2 days",1.1%
same,% FITC Shift,[12]; [18],1.8%
same,% PI Shift,[12]; [18],1.5%
same,% FITC Shift,[12]; [19],1.7%
same,% PI Shift,[12]; [19],1.8%
same,% FITC Shift,[12]; [20],1.5%
same,% PI Shift,[12]; [20],3.8%
same,% FITC Shift,[12]; [21],33.7%
same,% PI Shift,[12]; [21],15.9%
same,% FITC Shift,[12]; [22],78.3%
same,% PI Shift,[12]; [22],17.3%
same,% FITC Shift,[12]; [23],62.6%
same,% PI Shift,[12]; [23],19.7%
same,% FITC Shift,[12]; [24],66.4%
same,% PI Shift,[12]; [24],17.8%
same,% FITC Shift,[13]; [14],1.6%
same,% FITC Shift,[13]; [15],2.2%
same,% FITC Shift,[13]; [16],2.2%
same,% FITC Shift,[13]; [17],1.0%
